Data on 40 compounds can be found in the Deep4Chem optical property database.

The structures appear in SMILES notation.

A short description of this data set: photoluminescence quantum yield (fraction); solvent given as SMILES.

As to `CC(C)c1cc(C(C)C)c(B2c3ccccc3Oc3cc(N4c5ccccc5C(C)(C)c5ccccc54)ccc32)c(C(C)C)c1`, the photoluminescence quantum yield (in Cc1ccccc1) was 1.

With `CCn1c(-c2ccc(-c3ccc4c(c3)C(C)(C)c3ccccc3-4)cc2)c(-c2ccc3ccccc3c2)c(-c2ccc3ccccc3c2)c1-c1ccc(-c2ccc3c(c2)C(C)(C)c2ccccc2-3)cc1`, the photoluminescence quantum yield (in CCOC(C)=O) came out at 0.99.

Turning to `CN(C)c1ccc(C#Cc2cc(C#Cc3ccc(C(F)(F)F)cc3)c3ccc4c(C#Cc5ccc(C(F)(F)F)cc5)cc(C#Cc5ccc(C(F)(F)F)cc5)c5ccc2c3c54)cc1`, the photoluminescence quantum yield (in ClCCl) was determined as 0.43.

As for `CC1=N/C(=C\c2ccncc2)C(=O)N1C`, the photoluminescence quantum yield is 0.165 (in C1COCCO1); 0.047 (in CC#N); 0.033 (in CCO); 0.089 (in CCOC(C)=O); 0.0065 (in O).

In the case of `CCN(CC)c1ccc2c(-c3ccc(S(=O)(=O)[O-])cc3S(=O)(=O)[O-])c3ccc(=[N+](CC)CC)cc-3oc2c1`, the photoluminescence quantum yield is 0.52 (in CC#N), 0.68 (in CCO), 0.51 (in CN(C)C=O) and 0.3 (in O).

Regarding `Clc1ccc2nc3cc4ccccc4cc3c(-c3ccccc3)c2c1`, under “in ClCCl”, the photoluminescence quantum yield came to 0.38.

As to `C#CCN1C(=O)/C(=C/c2cc(OC(C)C)ccc2OC(C)C)N=C1C`, the photoluminescence quantum yield amounted to 0.108 (in C1COCCO1); 0.134 (in CC#N); 0.12 (in CC(C)=O); 0.089 (in CCCCCC); 0.029 (in CCCCO); 0.08 (in CCCO). This compound had a photoluminescence quantum yield (in CCO) of 0.025; a photoluminescence quantum yield (in CCOC(C)=O) of 0.101; a photoluminescence quantum yield (in CN(C)C=O) of 0.171; a photoluminescence quantum yield (in CO) of 0.019; a photoluminescence quantum yield (in CS(C)=O) of 0.182.

For the compound `O=c1oc2cccc3c4cccc5ccc6c7cc(F)ccc7c1c(c23)c6c54`, the photoluminescence quantum yield (in C1CCOC1) stood at 0.216.

Under “in ClCCl”, `CCCCCCCCOc1ccc(C#Cc2c3cc4ccccc4cc3c(C#Cc3ccc(F)cc3)c3cc4ccccc4cc23)cc1` had a photoluminescence quantum yield of 0.03.

For the compound `CCCCCCCCC1(CCCCCCCC)c2ccccc2-c2ccc(N(c3ccc(-n4c5ccccc5c5ccccc54)cc3)c3ccc4c(c3)C(CCCCCCCC)(CCCCCCCC)c3ccccc3-4)cc21`, the photoluminescence quantum yield runs as follows: (in C1CCOC1) 0.24; (in CC#N) 0.31; (in CC(C)=O) 0.31; (in CCCCCC) 0.27; (in CCCCOCCCC) 0.25; (in CCN(CC)CC) 0.27. For the same compound, the photoluminescence quantum yield came to 0.3 (in CCOC(C)=O); 0.37 (in CCOCC); 0.32 (in CN(C)C=O); 0.36 (in Cc1ccccc1); 0.3 (in ClCCl).

With `Cc1nc(-c2ccc(-n3c4ccccc4c4ccccc43)cc2)cc(-c2ccc(-n3c4ccccc4c4ccccc43)cc2)n1`, the photoluminescence quantum yield by setting is: (in C1CCOC1) 0.61; (in CN(C)C=O) 0.73; (in Cc1ccccc1) 0.65; (in ClC(Cl)Cl) 0.61.

Take `O=[N+]([O-])c1ccc(-c2cn3ccc[n+]3[n-]2)cc1`: where the note is “in ClCCl”, the photoluminescence quantum yield worked out at 0.16.

Consider `c1ccc(-c2ccccc2)cc1`, for which the photoluminescence quantum yield runs as follows: (in C1CCCCC1) 0.25; (in C1COCCO1) 0.18.

In turn, `c1ccc(-c2c3c(nc4ccccc24)-c2cc4c(cc2CC3)-c2nc3ccccc3c(-c3ccccc3)c2CC4)cc1` yielded a photoluminescence quantum yield (in ClC(Cl)Cl) of 0.84.

For `CC[B-]1(CC)c2cccc3cc4ccccc4c(c23)-c2cccc(C)[n+]21`, where the note is “in ClCCl”, the photoluminescence quantum yield came out at 0.202.

As to `CCOC(=O)/C(C#N)=C\c1ccc2c(c1)c1ccccc1n2-c1ccc(C)cc1`, the photoluminescence quantum yield by setting is: (in C1CCOC1) 0.09; (in CC#N) 0.01; (in CC(C)=O) 0.025; (in CCOC(C)=O) 0.11; (in CO) 0.06; (in CS(C)=O) 0.04. Besides, the photoluminescence quantum yield by setting is: (in Cc1ccccc1) 0.095; (in ClC(Cl)Cl) 0.08.

Consider `COC(=O)c1ccc(/C=C2\N=C(c3ccc([N+](=O)[O-])cc3)NC2=O)cc1`, for which, under “in C1COCCO1”, the photoluminescence quantum yield is 0.258.

`CCCCCCCCN1c2ccc(C#Cc3ccc(OC)cc3)cc2Sc2cc(C=O)ccc21` yielded a photoluminescence quantum yield (in C1CCOC1) of 0.54; a photoluminescence quantum yield (in CC#N) of 0.34; a photoluminescence quantum yield (in CCCCCC) of 0.59; a photoluminescence quantum yield (in CO) of 0.07; a photoluminescence quantum yield (in CS(C)=O) of 0.91; a photoluminescence quantum yield (in Cc1ccccc1) of 0.49. For the setting “in ClC(Cl)Cl”, this compound came in with a photoluminescence quantum yield of 0.58.

In the case of `CC(C)(C)c1ccc2c(c1)c1cc(C(C)(C)C)ccc1n2-c1ccc(C#Cc2ccc3c4ccc(C#Cc5ccc(C=C(C#N)C#N)cc5)cc4n(-c4ccc(C(F)(F)F)cc4)c3c2)cc1`, the photoluminescence quantum yield (in ClCCl) was 0.12.

On to `Oc1c(-c2cccs2)cccc1-c1nc2ccccc2s1`, for which the photoluminescence quantum yield reads like this: (in CCO) 0.0075; (in ClCCl) 0.017; (in O) 0.01.

With `c1ccc(-c2ccnc(-c3ccccc3)n2)cc1`, the photoluminescence quantum yield (in ClC(Cl)Cl) was determined as 0.51.

As for `CCn1c2ccccc2c2cc(/C=C3\C(=O)c4ccccc4S3(=O)=O)ccc21`, the photoluminescence quantum yield is 0.029 (in C1CCOC1); 0.025 (in C1COCCO1); 0.023 (in CC#N); 0.042 (in CC(C)=O); 0.039 (in CCOC(C)=O); 0.033 (in CN(C)C=O). The photoluminescence quantum yield amounted to 0.003 (in CO); 0.083 (in CS(C)=O); 0.014 (in Cc1ccccc1); 0.04 (in ClC(Cl)Cl); 0.04 (in ClCCl).

As to `CCOC(=O)c1ccc(NC(=O)COc2cc3c4c([nH]c3c(C)c2C)C(=O)CCC4)cc1`, the photoluminescence quantum yield came out at 0.031 (in C1COCCO1); 0.131 (in CC#N); 0.097 (in CCO); 0.123 (in CS(C)=O); 0.037 (in O); 0.075 (in c1ccccc1).

`CN(C)c1ccc(C#Cc2cc(C#Cc3ccc(C(F)(F)F)cc3)c3ccc4c(C#Cc5ccc(C(F)(F)F)cc5)cc(C#Cc5ccc(N(C)C)cc5)c5ccc2c3c54)cc1` returned a photoluminescence quantum yield (in ClCCl) of 0.42.

`CC1=CC(C)=[N+]2C1=C(c1ccc(N3CCOCC3)cc1)c1c(C)cc(C)n1[B-]2(F)F`: the photoluminescence quantum yield is, setting by setting: (in C1CCOC1) 0.011; (in CC#N) 0.001; (in CC(=O)C(C)(C)C) 0.063; (in CC(C)=O) 0.001; (in CCCCCC) 0.45; (in CCOC(C)=O) 0.029. In addition, the photoluminescence quantum yield (in CO) was 0.002.

`C[Si](C)(c1cccc2ccccc12)[Si](C)(C)[Si](C)(C)[Si](C)(C)c1c2ccccc2cc2ccccc12`: the photoluminescence quantum yield by setting is: (in C1CCCCC1) 0.65; (in CC#N) 0.08.

Where the note is “in CCCCCC”, `COc1ccc2c(c1)N(c1ccc(C)cc1)c1cc3c(cc1=N2)Oc1c(cc(C(C)(C)C)cc1C(C)(C)C)N=3` returned a photoluminescence quantum yield of 0.35.

For `C(=C\c1cc(/C=C/c2ccc(N(c3ccccc3)c3ccccc3)cc2)nc(/C=C/c2ccc(N(c3ccccc3)c3ccccc3)cc2)n1)/c1ccc(N(c2ccccc2)c2ccccc2)cc1`, the photoluminescence quantum yield (in ClCCl) turned out to be 0.56.

Take `NS(=O)(=O)c1ccc(N2N=C(c3ccc(O)cc3)CC2c2ccc([N+](=O)[O-])cc2)cc1` (configuration not stated): the photoluminescence quantum yield amounted to 0.01 (in C1CCOC1); 0.01 (in C1COCCO1); 0.01 (in CC#N); 0.02 (in CC(C)O); 0.01 (in CCO); 0.01 (in CCOC(C)=O). Besides, the photoluminescence quantum yield runs as follows: (in CN(C)C=O) 0.01; (in CS(C)=O) 0.01.

In the case of `CCCCCCc1ccsc1-c1cc2c3cc(-c4sccc4CCCCCC)c4nc(C(F)(F)C(F)(F)C(F)(F)F)nc5c(-c6sccc6CCCCCC)cc(c6cc(-c7sccc7CCCCCC)c7nc(C(F)(F)C(F)(F)C(F)(F)F)nc1c7c26)c3c45`, for the setting “in C1CCOC1”, the photoluminescence quantum yield was found to be 0.65.

Consider `CN(C)c1ccc2nc(-c3ccc(C(=O)OC[C@H](NC(=O)OC(C)(C)C)C(=O)OCc4ccccc4)cc3)sc2c1`, for which the photoluminescence quantum yield by setting is: (in C1CCCCC1) 0.86; (in CC#N) 0.94; (in CC(C)O) 0.9; (in CO) 0.68; (in CS(C)=O) 0.94; (in ClC(Cl)Cl) 0.98. For the setting “in c1ccccc1”, this compound yielded a photoluminescence quantum yield of 0.92.

`COc1ccc(-c2nc(-c3ccccc3)c(N(C)C)[se]2)cc1` registered a photoluminescence quantum yield (in ClC(Cl)Cl) of 0.039.

Turning to `CN(C)c1ccc(/C=C/c2ncc3ccccc3n2)cc1`, the photoluminescence quantum yield is, setting by setting: (in CC#N) 0.06; (in ClCCl) 0.21.

`COc1ccc(OC)c(C(C)=O)c1`: the photoluminescence quantum yield (in CO) is 0.1.

Regarding `Cc1cccc2nc3[nH]c(=O)[nH]c(=O)c3nc12`, the photoluminescence quantum yield (in CC#N) was found to be 0.017.

In turn, `Clc1cc(Cl)c([C](c2c(Cl)cc(Cl)cc2Cl)c2c(Cl)cc(Cl)cc2Cl)c(Cl)c1` came in with a photoluminescence quantum yield (in C1CCCCC1) of 0.008.

`CC(C)(C)OC(=O)NC(C(=O)OCc1ccc2c3cccc4cccc(c5cccc1c52)c43)c1c[nH]c2ccccc12` (configuration not stated) came in with a photoluminescence quantum yield (in CCO) of 0.86.

`Oc1ccccc1C1=NC2c3cccc4cccc(c34)C2N1c1ccccc1` (configuration not stated) came in with a photoluminescence quantum yield (in Cc1ccccc1) of 0.009.

Consider `CC1=C(c2ccccc2)C(C)=[N+]2C1=C(c1c(-c3ccccn3)nc3ccccn13)c1c(C)c(-c3ccccc3)c(C)n1[B-]2(F)F`, for which the photoluminescence quantum yield (in ClCCl) was 0.785.

As to `N#CC1=CC=CC(C#N)=P1(c1ccccc1)c1ccccc1`, where the note is “in ClC(Cl)Cl”, the photoluminescence quantum yield is 0.92.
